Assay [1] is described as follows: Cytotoxicity against P-glycoprotein deficient wild type human LCC-6 cells after 72 hrs. In kind it is functional, cell-based. The conditions noted are these: LCC-6, 72 h.
A short description of assay [2]: Resistance factor, ratio of IC50 for human LCC-6 cells expressing P-glycoprotein to IC50 for P-glycoprotein deficient wild type human LCC-6 cells. The class given is functional. The arrangement: reference not given here.
A further assay concerns MCF7. The experiment in a line: Resistance factor, ratio of IC50 for P-glycoprotein deficient wild type human MCF7 cells to IC50 for multidrug-resistant human NCI/ADR cells. The class given is functional.

Our source for the IC50 and Ratio values is ChEMBL document CHEMBL1152321, “Recent advances in the chemistry and biology of new generation taxoids” (J Nat Prod, 2009).

In the case of `CCC(=O)O[C@H]1C(=O)[C@@]2(C)[C@H]([C@H](OC(=O)c3cccc(OC)c3)[C@]3(O)C[C@H](OC(=O)[C@H](O)[C@H](CC(C)C)NC(=O)OC4CCCC4)C(C)=C1C3(C)C)[C@]1(OC(C)=O)CO[C@@H]1C[C@@H]2O`, in assay [1], the IC50 – broadly, the midpoint of a concentration-inhibition curve – stood at 0.76 nM. Also, the Ratio in assay [2] came to 3.4; with MCF7, 6.9.
`CCC(=O)O[C@H]1C(=O)[C@@]2(C)[C@H]([C@H](OC(=O)c3ccccc3)[C@]3(O)C[C@H](OC(=O)[C@H](O)[C@H](CC(C)C)NC(=O)C4CCCCC4)C(C)=C1C3(C)C)[C@]1(OC(C)=O)CO[C@@H]1C[C@@H]2O`: in assay [1], it took 5.8 nM to reach half-maximal inhibition (IC50). Besides, the Ratio in assay [2] is reported as 5.5; in the assay on MCF7, 13.
Consider `CCC(=O)O[C@H]1C(=O)[C@@]2(C)[C@H]([C@H](OC(=O)c3ccccc3)[C@]3(O)C[C@H](OC(=O)[C@H](O)[C@H](CC(C)C)NC(=O)C4CCCC4)C(C)=C1C3(C)C)[C@]1(OC(C)=O)CO[C@@H]1C[C@@H]2O`, for which the IC50 in assay [1] was 6.3 nM. The Ratio was found to be 10 in assay [2] and 12 in the assay with MCF7.
Taken in the same sequence, the figures for `COc1cccc(C(=O)O[C@H]2[C@@H]3[C@]4(OC(C)=O)CO[C@@H]4C[C@H](O)[C@@]3(C)C(=O)[C@H](OC(=O)OCc3ccccc3)C3=C(C)[C@@H](OC(=O)[C@H](O)[C@H](C=C(C)C)NC(=O)OC(C)(C)C)C[C@]2(O)C3(C)C)c1` were 1.2 nM, 1.5 and 7.5.
Turning to `C=CCC[C@H](NC(=O)OC(C)(C)C)[C@@H](O)C(=O)O[C@H]1C[C@@]2(O)[C@@H](OC(=O)c3cccc(OC)c3)[C@@H]3[C@]4(OC(C)=O)CO[C@@H]4C[C@H](O)[C@@]3(C)C(=O)[C@H](OC(=O)CC)C(=C1C)C2(C)C`, the IC50 in assay [1] was 0.9 nM. The Ratio in assay [2] worked out at 6; in the assay on MCF7 it was 3.9.
In assay [1], `CCC(=O)O[C@H]1C(=O)[C@@]2(C)[C@H]([C@H](OC(=O)c3cccc(OC)c3)[C@]3(O)C[C@H](OC(=O)[C@H](O)[C@H](C=C(C)C)NC(=O)C4CCCC4)C(C)=C1C3(C)C)[C@]1(OC(C)=O)CO[C@@H]1C[C@@H]2O` registered an IC50 of 1.1 nM. Also, the Ratio came to 10 in assay [2] and 32 in the assay with MCF7.
On to `COc1cccc(C(=O)O[C@H]2[C@@H]3[C@]4(OC(C)=O)CO[C@@H]4C[C@H](O)[C@@]3(C)C(=O)[C@H](OC(=O)c3ccccc3OC)C3=C(C)[C@@H](OC(=O)[C@H](O)[C@H](C=C(C)C)NC(=O)OC(C)(C)C)C[C@]2(O)C3(C)C)c1`, for which, in assay [1], the IC50 turned out to be 0.4 nM. The Ratio is given as 2.3 in assay [2] and 3 in the assay with MCF7.
With `CCC(=O)O[C@H]1C(=O)[C@@]2(C)[C@H]([C@H](OC(=O)c3ccccc3)[C@]3(O)C[C@H](OC(=O)[C@H](O)[C@H](C=C(C)C)NC(=O)C4=CCCC4)C(C)=C1C3(C)C)[C@]1(OC(C)=O)CO[C@@H]1C[C@@H]2O`, it took 1.2 nM to reach half-maximal inhibition in assay [1] (IC50). For the same molecule, the Ratio in assay [2] is listed as 12; in the assay on MCF7 it was 15.
Taken in the same sequence, the figures for `CCC(=O)O[C@H]1C(=O)[C@@]2(C)[C@H]([C@H](OC(=O)c3cccc(OC)c3)[C@]3(O)C[C@H](OC(=O)[C@H](O)[C@H](C=C(C)C)NC(=O)C4CC4)C(C)=C1C3(C)C)[C@]1(OC(C)=O)CO[C@@H]1C[C@@H]2O` were 1.1 nM, 16 and 15.6.
The like results for `CCC(=O)O[C@H]1C(=O)[C@@]2(C)[C@H]([C@H](OC(=O)c3ccccc3)[C@]3(O)C[C@H](OC(=O)[C@H](O)[C@H](CC(C)C)NC(=O)OC4CCCC4)C(C)=C1C3(C)C)[C@]1(OC(C)=O)CO[C@@H]1C[C@@H]2O` were, in that order, 2.6 nM, 5.4 and 6.8.
`C=CC[C@H](NC(=O)OC(C)(C)C)[C@@H](O)C(=O)O[C@H]1C[C@@]2(O)[C@@H](OC(=O)c3cccc(OC)c3)[C@@H]3[C@]4(OC(C)=O)CO[C@@H]4C[C@H](O)[C@@]3(C)C(=O)[C@H](OC(=O)CC)C(=C1C)C2(C)C` came in with an IC50 in assay [1] of 1.2 nM. For the same molecule, the figures for the Ratio (in assay [2]; in the assay with MCF7) were 7 and 10.9, respectively.
`CCC(=O)O[C@H]1C(=O)[C@@]2(C)[C@H]([C@H](OC(=O)c3cccc(OC)c3)[C@]3(O)C[C@H](OC(=O)[C@H](O)[C@H](CC(C)C)NC(=O)C4CC4)C(C)=C1C3(C)C)[C@]1(OC(C)=O)CO[C@@H]1C[C@@H]2O` came in with a half-maximal inhibitory concentration (IC50) in assay [1] of 0.6 nM. In addition, the values for the Ratio (in assay [2]; in the assay with MCF7) were 22 and 30, respectively.
Turning to `CCC(=O)O[C@H]1C(=O)[C@@]2(C)[C@H]([C@H](OC(=O)c3cccc(OC)c3)[C@]3(O)C[C@H](OC(=O)[C@H](O)[C@H](CC(C)C)NC(=O)C4CCCCC4)C(C)=C1C3(C)C)[C@]1(OC(C)=O)CO[C@@H]1C[C@@H]2O`, in assay [1], the IC50 is 1 nM. Also, the Ratio in assay [2] was found to be 12; with MCF7, 9.3.
Taken in the same sequence, the figures for `CCC(=O)O[C@H]1C(=O)[C@@]2(C)[C@H]([C@H](OC(=O)c3ccccc3)[C@]3(O)C[C@H](OC(=O)[C@H](O)[C@H](C=C(C)C)NC(=O)C4CCCCC4)C(C)=C1C3(C)C)[C@]1(OC(C)=O)CO[C@@H]1C[C@@H]2O` were 1.3 nM, 10 and 18.
In the case of `COc1ccc(CC(=O)O[C@H]2C(=O)[C@@]3(C)[C@H]([C@H](OC(=O)c4cccc(OC)c4)[C@]4(O)C[C@H](OC(=O)[C@H](O)[C@H](C=C(C)C)NC(=O)OC(C)(C)C)C(C)=C2C4(C)C)[C@]2(OC(C)=O)CO[C@@H]2C[C@@H]3O)cc1`, the IC50 in assay [1] worked out at 0.4 nM. Moreover, the Ratio in assay [2] is on record as 1; with MCF7, 3.
Taken in the same sequence, the figures for `CCC(=O)O[C@H]1C(=O)[C@@]2(C)[C@H]([C@H](OC(=O)c3ccccc3)[C@]3(O)C[C@H](OC(=O)[C@H](O)[C@H](C=C(C)C)NC(=O)OC4CCCCC4)C(C)=C1C3(C)C)[C@]1(OC(C)=O)CO[C@@H]1C[C@@H]2O` were 1.2 nM, 13 and 6.4.
Taken in the same sequence, the figures for `CCC(=O)O[C@H]1C(=O)[C@@]2(C)[C@H]([C@H](OC(=O)c3ccccc3)[C@]3(O)C[C@H](OC(=O)[C@H](O)[C@H](C=C(C)C)NC(=O)C4CCCC4)C(C)=C1C3(C)C)[C@]1(OC(C)=O)CO[C@@H]1C[C@@H]2O` were 1.1 nM, 17 and 20.
Taken in the same sequence, the figures for `CCC(=O)O[C@H]1C(=O)[C@@]2(C)[C@H]([C@H](OC(=O)c3ccccc3)[C@]3(O)C[C@H](OC(=O)[C@H](O)[C@H](C=C(C)C)NC(=O)C4CCC4)C(C)=C1C3(C)C)[C@]1(OC(C)=O)CO[C@@H]1C[C@@H]2O` were 1.3 nM, 26 and 34.
Turning to `CCC(=O)O[C@H]1C(=O)[C@@]2(C)[C@H]([C@H](OC(=O)c3cccc(OC)c3)[C@]3(O)C[C@H](OC(=O)[C@H](O)[C@H](C=C(C)C)NC(=O)C4CCC4)C(C)=C1C3(C)C)[C@]1(OC(C)=O)CO[C@@H]1C[C@@H]2O`, the IC50 in assay [1] stood at 1.6 nM. Moreover, the Ratio amounted to 9.4 in assay [2] and 11 in the assay on MCF7.
